Values after ≈ are worked out from the molar mass of the structure shown. Where two headings read alike, the source gives them in different places.
Tests used:
[1] = system: M. abscessus MABS1; assay: MIC (Table 8); format: cell-based; settings: Mycobacteroides abscessus
[2] = system: M. abscessus MABS7; assay: MIC (Table 8); format: cell-based; settings: Mycobacteroides abscessus
[3] = system: CF patient strain DNA00133; assay: MIC broth dilution, growth by turbidity/OD 595 nm; format: cell-based, M. avium; settings: for MIC: Mycobacterium avium
Experimental: (§1) Mycobacteria strains were used to determine MICs of BisEDT and amikacin. Strains included cystic fibrosis patient isolates from National Jewish Hospital. A range of high dose to low dose of antibiotics was used to determine bacteria susceptibility. M. avium strain 104, M. avium strain 3388, and CF patient strain DNA00133 were grown to log phase (7 days) while M. abscessus strain 19977, CF patient strain DNA00703, and CF patient strain DNA01715 achieved log phase (4 days) on 7H10 middlebrook media plates supplemented with 10% OADC (Oleic acid, Albumin, Dextrose, Catalase). […] For BisEDT, two types of compound physical states were tested. First, BisEDT was solubilized in DMSO (furthermore labeled soluble BisEDT). Second, BisEDT was made in suspension to mimic in vivo studies (furthermore labeled insoluble BisEDT). […] Control tubes containing no antibiotics were also included for each antibiotic tested. Inoculums of […] bacteria for each strain was measured with optical density (O.D.) at 595 nm. 10 μl of these inoculums were added to each antibiotic tube and incubated in a shaking incubator at 37° C. and 200 rpm. Slow growing stains were measured for growth after 10 days incubation while fast growing strains were incubated for 5 days. After incubation, 100 μl from each tube was pulled and placed in a 96-well plate for O.D. reading. Turbidity determined sensitive, intermediate, or resistant bacteria.

[4] = system: M. abscessus biofilm (six clinical isolates); assay: MBEC assay, summary over six clinical isolates; format: cell-based; settings: at high concentrations (amikacin, clarithromycin: apart from MABS4)
Source text: In this study the MBEC assay was followed as described in the Innovotech Procedural Manual, version 2.1 with minor modifications to assess the antibiofilm activity of the antimicrobial compounds under investigation. The MBEC value refers to the Minimum Biofilm Eradication Concentration of each antimicrobial for each strain. The MBEC value is defined as the minimum antibiotic concentration where the optical density (OD) value at recovery is less than 10% of the control OD value and there is no growth observed with visual examination of the wells.
Step 1: Inoculation. For resuscitation, all strains were streaked on TSA plates, except for the mycobacteria which were streaked on 7H10 media, from the frozen stocks, and grew overnight at 37° C. (Table 6). From the plate, one colony was picked for inoculation in organism specific medium (OSM) and grown in a shaker incubator at 37° C. at 225 RPM until mid-log phase (OD 0.2-0.8). At mid log phase the culture was diluted in OSM medium (Table 6) to an OD of 0.05. 150 μL of it were aliquoted in each corresponding well in a 96-well MBEC plate (inoculation plate). Subsequently, the MBEC plates were incubated static at 37° C. for the appropriate time for each species (Table 7). During incubation, biofilm formed on the pegs.
Step 2: Challenge. Following incubation, the peg lid with the biofilm was washed twice in PBS and placed on a second 96-well plate with 200 μl of antibiotic dilutions (challenge plate). The challenge plate was then incubated at 37° C. for 18 h to allow exposure of the biofilm to antibiotics.
Step 3: Recovery. […] The recovery of resistant cells was assessed by an end-point measurement of the optical density at 600 nm (OD600) for each well with a plate reader (FIG. 4).
This is possibly, in part, due to the variable clumping of the cells observed in the biofilm biomass on the pegs. The clumping of the cells also impacted the OD readings. […] For replicate experiments with variable results, the final MBEC values were determined based on the higher MBEC concentration observed among the replicates.

[5] = system: M. abscessus MABS9; assay: MIC (Table 8); format: cell-based; settings: Mycobacteroides abscessus
[6] = system: M. abscessus MABS4; assay: MIC (Table 8); format: cell-based; settings: Mycobacteroides abscessus
[7] = system: CF patient strain DNA00703; assay: MIC broth dilution, growth by turbidity/OD 595 nm; format: cell-based, M. abscessus; settings: for MIC: Mycobacteroides abscessus
Experimental: as §1

[8] = system: M. abscessus MABS11; assay: MIC (Table 8); format: cell-based; settings: Mycobacteroides abscessus
[9] = system: M. abscessus strain 19977; assay: MIC broth dilution, growth by turbidity/OD 595 nm; format: cell-based; settings: for Sensitivity phenotype (R/I/S): 19977; for MIC: Mycobacteroides abscessus
Experimental: as §1

[10] = system: M. avium strain 3388 (MAH 3388); assay: MIC broth dilution, growth by turbidity/OD 595 nm; format: cell-based; settings: for Sensitivity phenotype (R/I/S): MAH 3388; for MIC: Mycobacterium avium
Experimental: as §1

[11] = system: M. avium strain 104 (MAH 104); assay: MIC broth dilution, growth by turbidity/OD 595 nm; format: cell-based; settings: for Sensitivity phenotype (R/I/S): MAH 104; for MIC: Mycobacterium avium
Experimental: as §1

NCC[C@H](O)C(=O)N[C@@H]1C[C@H](N)[C@@H](O[C@H]2O[C@H](CN)[C@@H](O)[C@H](O)[C@H]2O)[C@H](O)[C@H]1O[C@H]1O[C@H](CO)[C@@H](O)[C@H](N)[C@H]1O [amikacin] was tested. Which MIC [1] did it give?
Its MIC is 16 µg/mL (≈ 27.3 µM).

What about the MIC [2] of the same molecule?
Its MIC is 2 µg/mL (≈ 3.42 µM).

What about the “Sensitivity phenotype (R/I/S)” value ([3]; 1 μg/mL) of the same molecule?
Its value is “R”.

And the “Sensitivity phenotype (R/I/S)” value ([3]; 2 μg/mL)?
Its value is “R”.

What about the “Sensitivity phenotype (R/I/S)” value ([3]; 4 μg/mL) of the same molecule?
Its value is “R”.

What about the “Sensitivity phenotype (R/I/S)” value ([3]; 8 μg/mL) of the same molecule?
Its value is “R”.

And the “Sensitivity phenotype (R/I/S)” value ([3]; 16 μg/mL)?
Its value is “R”.

And the “Sensitivity phenotype (R/I/S)” value ([3]; 32 μg/mL)?
Its value is “R”.

And the “Sensitivity phenotype (R/I/S)” value ([3]; 64 μg/mL)?
Its value is “R”.

What about the “Sensitivity phenotype (R/I/S)” value ([3]; 128 μg/mL) of the same molecule?
Its value is “R”.

What about the MIC [3] of the same molecule?
Its MIC is greater than 128 µg/mL.

What about the MIC ([3]; M. avium strain 1333 (Table 3), read-out: MIC determined for the strain, used for treatment of infected macrophages) of the same molecule?
The MIC was 8 µg/mL (≈ 13.7 µM).

What about the “biofilm susceptibility, in words” value [4] of the same molecule?
The value was “resistance”.

And the MIC [5]?
The MIC was 8 µg/mL (≈ 13.7 µM).

What about the MIC [6] of the same molecule?
Its MIC is 4 µg/mL (≈ 6.83 µM).

And the “Sensitivity phenotype (R/I/S)” value ([7]; 1 μg/mL)?
The value was “R”.

What about the “Sensitivity phenotype (R/I/S)” value ([7]; 2 μg/mL) of the same molecule?
The value was “R”.

And the “Sensitivity phenotype (R/I/S)” value ([7]; 4 μg/mL)?
Its value is “R”.

What about the “Sensitivity phenotype (R/I/S)” value ([7]; 8 μg/mL) of the same molecule?
The value was “R”.

And the “Sensitivity phenotype (R/I/S)” value ([7]; 16 μg/mL)?
Its value is “I”.

What about the “Sensitivity phenotype (R/I/S)” value ([7]; 32 μg/mL) of the same molecule?
The value was “I”.

And the “Sensitivity phenotype (R/I/S)” value ([7]; 64 μg/mL)?
Its value is “S”.

What about the “Sensitivity phenotype (R/I/S)” value ([7]; 128 μg/mL) of the same molecule?
The value was “S”.

What about the MIC ([7]; M. abscessus strain 00703 (Table 4), read-out: MIC determined for the strain, used for treatment of infected macrophages) of the same molecule?
Its MIC is 64 µg/mL (≈ 109 µM).

And the MIC ([7]; M. abscessus strain from patient 00703, read-out: MIC)?
Its MIC is 64 µg/mL (≈ 109 µM).

And the MIC [8]?
Its MIC is 1 µg/mL (≈ 1.71 µM).

What about the “Sensitivity phenotype (R/I/S)” value ([9]; 1 μg/mL) of the same molecule?
Its value is “R”.

What about the “Sensitivity phenotype (R/I/S)” value ([9]; 2 μg/mL) of the same molecule?
Its value is “R”.

And the “Sensitivity phenotype (R/I/S)” value ([9]; 4 μg/mL)?
Its value is “R”.

And the “Sensitivity phenotype (R/I/S)” value ([9]; 8 μg/mL)?
Its value is “R”.

And the “Sensitivity phenotype (R/I/S)” value ([9]; 16 μg/mL)?
Its value is “R”.

And the “Sensitivity phenotype (R/I/S)” value ([9]; 32 μg/mL)?
The value was “S”.

And the “Sensitivity phenotype (R/I/S)” value ([9]; 64 μg/mL)?
The value was “S”.

And the “Sensitivity phenotype (R/I/S)” value ([9]; 128 μg/mL)?
Its value is “S”.

And the MIC ([9]; M. abscessus strain 19977 (Table 4), read-out: MIC determined for the strain, used for treatment of infected macrophages)?
The MIC was 32 µg/mL (≈ 54.6 µM).

And the MIC ([9]; M. abscessus strain 19977, read-out: MIC)?
Its MIC is 32 µg/mL (≈ 54.6 µM).

What about the “Sensitivity phenotype (R/I/S)” value ([10]; 1 μg/mL) of the same molecule?
Its value is “R”.

And the “Sensitivity phenotype (R/I/S)” value ([10]; 2 μg/mL)?
The value was “R”.

And the “Sensitivity phenotype (R/I/S)” value ([10]; 4 μg/mL)?
The value was “I”.

What about the “Sensitivity phenotype (R/I/S)” value ([10]; 8 μg/mL) of the same molecule?
Its value is “S”.

And the “Sensitivity phenotype (R/I/S)” value ([10]; 16 μg/mL)?
Its value is “S”.

What about the “Sensitivity phenotype (R/I/S)” value ([10]; 32 μg/mL) of the same molecule?
Its value is “S”.

What about the “Sensitivity phenotype (R/I/S)” value ([10]; 64 μg/mL) of the same molecule?
The value was “S”.

What about the “Sensitivity phenotype (R/I/S)” value ([10]; 128 μg/mL) of the same molecule?
Its value is “S”.

What about the MIC ([10]; M. avium strain 3388 (Table 3), read-out: MIC determined for the strain, used for treatment of infected macrophages) of the same molecule?
Its MIC is 8 µg/mL (≈ 13.7 µM).

What about the MIC ([10]; M. avium strain 3388, read-out: MIC) of the same molecule?
The MIC was 8 µg/mL (≈ 13.7 µM).

And the “Sensitivity phenotype (R/I/S)” value ([11]; 1 μg/mL)?
The value was “R”.

What about the “Sensitivity phenotype (R/I/S)” value ([11]; 2 μg/mL) of the same molecule?
The value was “R”.

And the “Sensitivity phenotype (R/I/S)” value ([11]; 4 μg/mL)?
Its value is “R”.

And the “Sensitivity phenotype (R/I/S)” value ([11]; 8 μg/mL)?
Its value is “S”.

What about the “Sensitivity phenotype (R/I/S)” value ([11]; 16 μg/mL) of the same molecule?
The value was “S”.

And the “Sensitivity phenotype (R/I/S)” value ([11]; 32 μg/mL)?
Its value is “S”.

What about the “Sensitivity phenotype (R/I/S)” value ([11]; 64 μg/mL) of the same molecule?
The value was “S”.

What about the “Sensitivity phenotype (R/I/S)” value ([11]; 128 μg/mL) of the same molecule?
The value was “S”.

What about the MIC ([11]; M. avium strain 104 (Table 3), read-out: MIC determined for the strain, used for treatment of infected macrophages) of the same molecule?
The MIC was 8 µg/mL (≈ 13.7 µM).

And the MIC ([11]; M. avium strain 104, read-out: MIC)?
Its MIC is 8 µg/mL (≈ 13.7 µM).

— patent publication US20250090576A1, “METHODS FOR TREATING NONTUBERCULOUS MYCOBACTERIA DISEASES” (Microbion Corporation, priority 2022, published 2025)
